Test results from US20060251651A1, “Antagonist and agonist which bind to a strong binding site of chemokine receptor” (priority 2002, published 2006).
Where “and” joins values, the source holds several entries; their conditions need not be identical. Identical values can stand only once. Entries after “also recorded” stand apart in the source; their conditions may differ. Like-named read-outs stand apart in the source and are kept apart here.

Tests used:
hCCR5 [1] = target: T1, hCCR5 (Homo sapiens, UniProt P51681); assay: Ligand binding inhibition test for CCR5 under severe washing condition; set-up: expressed in transfected cells; host or cells: CHO-dhfr(-) stably transfected with pEF-BOS-bsr/hCCR5; settings: for IC50: hCCR5-CHO cells, compound 40 minutes, washed 8 times with PBS, 4 hours at 37° C., then radioisotope-labeled ligand; for inhibitory activity, times higher than that of SCH-351125 / inhibitory activity, times higher than that of TAK-779: ratio of IC50 values under severe washing condition
T1 sequence (P51681 whole entry): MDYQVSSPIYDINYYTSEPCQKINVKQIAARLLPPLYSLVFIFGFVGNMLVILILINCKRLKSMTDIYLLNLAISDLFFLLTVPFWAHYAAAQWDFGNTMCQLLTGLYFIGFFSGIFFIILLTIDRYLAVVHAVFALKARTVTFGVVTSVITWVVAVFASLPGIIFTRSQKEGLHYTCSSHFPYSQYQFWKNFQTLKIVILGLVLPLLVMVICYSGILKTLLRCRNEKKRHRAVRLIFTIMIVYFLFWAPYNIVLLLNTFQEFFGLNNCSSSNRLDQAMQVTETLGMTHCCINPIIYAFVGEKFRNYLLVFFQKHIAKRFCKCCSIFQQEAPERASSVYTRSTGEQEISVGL
Procedure: Inhibitory effects of CCR5 antagonists (e.g., TAK-779, SCH-351125 and triazaspiro[5.5]undecane derivatives) were examined using a binding test system of CCR5 endogenous ligand to CCR5.
Human CCR5 expressing cells (hCCR5-CHO cells) were inoculated into a culture plate, cultured using a medium (Ham's F-12 medium/10% FBS/Antibiotic-Antimycotic) at 37° C. for 1 day (or 2 days) in a CO2 incubator of 5% CO2 and used in the test. The medium in each well was discarded, the cells were washed with an assay buffer (Ham's F-12 medium/0.5% BSA/20 mmol/l HEPES), and the assay buffer was added to each well. A compound to be tested having respective concentration was added thereto and incubated at room temperature for 40 minutes, and then the cells were washed 8 times with PBS (1 ml/well). The assay buffer was further added and incubated at 37° C. for 4 hours. After 4 hours, the assay buffer was discarded and a radioisotope-labeled ligand was added. The culture mixture containing the cells was incubated at room temperature for 40 minutes and then washed three times with 1 ml/well of ice-cooled PBS. The cells were lysed with 1 mol/I sodium hydroxide aqueous solution, and radioactivity of the cell lysate was measured using a γ counter.

hCCR5 [2] = target: T1, hCCR5; assay: Anti-hCCR5 antibody binding inhibition test (flow cytometry); set-up: expressed in transfected cells; host or cells: Ba/F3 cells electroporated with linearised pEF-BOS-bsr/hCCR5, blasticidin-selected clone; settings: hCCR5-CHO cells, 10 μmol/l of each compound, FITC-labeled antibody
Procedure: […] The medium was removed from the flask, and the cells were peeled off and recovered by adding 1 mmol/l EDTA/PBS. The recovered cells were washed once with PBS and again suspended in PBS, and then the number of cells was counted. After centrifugation and subsequent removal of the supernatant by suction, the cells were suspended in an assay buffer (0.5% FBS/Ham's F-12 medium). Each of the compounds to be tested was added to the cell suspension and incubated on ice. An FITC-labeled anti-hCCR5 antibody (45531.111 or 45523.111) or an FITC-labeled isotype control antibody was further added thereto and allowed to undergo the reaction on ice under shading. After the reaction, the cells were washed twice with ice-cooled PBS and again suspended in ice-cooled FACS buffer (2% FBS/PBS), and the amount (fluorescence intensity) of the bound anti-hCCR5 antibody was measured using a flow cytometer (BECTON DICKINSON).

hCCR5 [3] = target: T1, hCCR5; assay: Inhibitory action upon the hCCR5 binding of tritium-labeled compound 1 (competition test); set-up: expressed in transfected cells; host or cells: Ba/F3 cells electroporated with linearised pEF-BOS-bsr/hCCR5, blasticidin-selected clone; settings: hCCR5-CHO cells; for inhibition of the hCCR5 binding of tritium-labeled compound 1: when the concentration was increased
Procedure: Human CCR5 expressing cells (hCCR5-CHO cells) were inoculated into a culture plate, cultured using a medium (Ham's F-12 medium/10% FBS/Antibiotic-Antimycotic) at 37° C. for 1 day in a CO2 incubator of 5% CO2 and used in the test. The medium in each well was discarded, the cells were washed with an assay buffer (Ham's F-12 medium/0.5% BSA/20 mmol/l HEPES), and the assay buffer was added thereto. […] After incubation at room temperature for 2 hours, the cells were washed with 1 ml/well of ice-cooled D-PBS. The cells were lysed with 1 mol/l NaOH and neutralized, and then a scintillator (ACS II, Amersham) was added thereto. Radioactivity of each vial was measured using a liquid scintillation counter (TRI-CARB 2900TR, Perkin Elmer Life Sciences).

hCCR5 [4] = target: T1, hCCR5; assay: Migration test induced by MIP-1α using hCCR5-Ba/F3 cells; format: cell-based; set-up: expressed in transfected cells; host or cells: Ba/F3 cells electroporated with linearised pEF-BOS-bsr/hCCR5, blasticidin-selected clone; settings: 24 well transwell, 3 hours; read-out: IC50, inhibition of migration of hCCR5-Ba/F3 cells by MIP-1α
Procedure: Firstly, 0.5 ml of a medium containing […] was added to the lower chamber (transwell bottom) of a 24 well transwell plate. […] The migration was started by moving the upper chamber wells of the transwell plate to the lower chamber wells containing chemokine. […] Measurement of the number of cells was carried out using a flow cytometer (BECTON DICKINSON), and the number of cells inside the gate (FSC×SSC) was counted. The number of migrated cells was defined as their ratio (%) to the count when the firstly added cells were analyzed by FACS, and the IC50 value was calculated from the inhibitory activity for the DMSO control group.

hCCR5 [5] = target: T1, hCCR5; assay: Persistency of hCCR5 binding in the living body of mouse after compound administration; format: in vivo; set-up: expressed in transfected cells; host or cells: Ba/F3 cells electroporated with linearised pEF-BOS-bsr/hCCR5, blasticidin-selected clone; settings: Balb/c mouse
Procedure: The peripheral blood was centrifuged using Lymphocyte-M to prepare PBMC, and the spleen was crushed, subjected to hemolytic treatment and then washed to obtain cells. The thus prepared cells were stained with PE-labeled anti-hCCR5 antibody (45531.111). CFSE-positive hCCR5-Ba/F3 Cells were detected by a flow cytometer, and fluorescence intensity (mean value) of PE-labeled anti-hCCR5 antibodies (2D7 and 45531.111) bound to the cells was measured.
The occupying ratio was calculated by the following formulae.
Correction Value [formula]
Receptor Occupying Ratio (R) [formula]

[6] = Blood plasma levels of compound 1 in mouse after administration into abdominal cavity; format: in vivo; settings: intraperitoneal, Balb/c mouse, read-out: blood plasma level

Row | IC50 (hCCR5 [1]) [nM] | inhibitory activity, times higher than that of SCH-351125 (hCCR5 [1]) | inhibitory activity, times higher than that of TAK-779 (hCCR5 [1]) | Compound | inhibition of binding of anti-hCCR5 antibody 45523.111 to hCCR5 expressing cells (hCCR5 [2]) | inhibition of binding of anti-hCCR5 antibody 45531.111 to hCCR5 expressing cells (hCCR5 [2]) | inhibition of the hCCR5 binding of tritium-labeled compound 1 (hCCR5 [3]) | IC50 (hCCR5 [4]) | inhibition of binding of anti-hCCR5 antibody 45531.111 to hCCR5 expressing cells (hCCR5 [2]; hydrochloride) | other results
1 | 16.7 | – | – | CCO/N=C(\c1ccc(Br)cc1)C1CCN(C2(C)CCN(C(=O)c3c(C)cc[n+]([O-])c3C)CC2)CC1 [SCH-351125] | inhibited binding; also recorded: strongly inhibited | weak | complete inhibition | 14.4 nM and 21 nM | – | –
2 | – | about 4 times | about 2.5 times | CCCCN1C(=O)[C@@H]([C@H](O)C2CCCCC2)NC(=O)C12CCN(Cc1ccc(Oc3ccc(C(=O)O)cc3)cc1)CC2.Cl [compound 1, (3R)-1-butyl-2,5-dioxo-3-((1R)-1-hydroxy-1-cyclohexylmethyl)-9-(4-(4-carboxyphenyloxy)phenylmethyl)-1,4,9-triazaspiro[5.5]undecane hydrochloride] | strongly inhibited | – | – | – | strongly inhibited; also recorded: strong | hCCR5 occupied in the spleen (hCCR5 [5]; 3 mg/kg into abdominal cavity, 0.5 hours): 92%; hCCR5 occupied in the spleen (hCCR5 [5]; 3 mg/kg into abdominal cavity, 4 hours): 55%; hCCR5 occupied in the spleen (hCCR5 [5]; 3 mg/kg into abdominal cavity, 8 hours): 32%; hCCR5 occupied in the spleen (hCCR5 [5]; 30 mg/kg into abdominal cavity, 0.5 hours): 96%; hCCR5 occupied in the spleen (hCCR5 [5]; 30 mg/kg into abdominal cavity, 4 hours): 69%; hCCR5 occupied in the spleen (hCCR5 [5]; 30 mg/kg into abdominal cavity, 8 hours): 54%; concentration at 0.5 h ([6]; 3 mg/kg into abdominal cavity): 352 nM; concentration at 4 h ([6]; 3 mg/kg into abdominal cavity): 5 nM; concentration at 8 h ([6]; 3 mg/kg into abdominal cavity): 1 nM; concentration at 0.5 h ([6]; 30 mg/kg into abdominal cavity): 1610 nM; concentration at 4 h ([6]; 30 mg/kg into abdominal cavity): 22 nM; concentration at 8 h ([6]; 30 mg/kg into abdominal cavity): 4 nM; competition with TAK-779 and SCH-351125 for CCR5 (hCCR5 [3]; displacement curves shifted in parallel, hydrochloride): competes; also recorded: Competitively antagonizes
3 | 1.5 | about 11 times | about 7 times | CCCCN1C(=O)[C@@H]([C@H](O)C2CCCCC2)NC(=O)C12CCN(Cc1ccc(Oc3ccc(C(=O)NC)cc3)cc1)CC2.Cl [compound 2, (3R)-1-butyl-2,5-dioxo-3-((1R)-1-hydroxy-1-cyclohexylmethyl)-9-(4-(4-methylaminocarbonylphenyloxy)phenylmethyl)-1,4,9-triazaspiro[5.5]undecane hydrochloride] | strongly inhibited | – | – | – | strongly inhibited; also recorded: strong | –

Row | Compound | IC50 (hCCR5 [1]) [nM] | inhibitory activity, times higher than that of SCH-351125 (hCCR5 [1]) | inhibitory activity, times higher than that of TAK-779 (hCCR5 [1]) | inhibition of binding of anti-hCCR5 antibody 45523.111 to hCCR5 expressing cells (hCCR5 [2]) | inhibition of binding of anti-hCCR5 antibody 45531.111 to hCCR5 expressing cells (hCCR5 [2]) | inhibition of the hCCR5 binding of tritium-labeled compound 1 (hCCR5 [3]) | IC50 (hCCR5 [4]) | inhibition of binding of anti-hCCR5 antibody 45531.111 to hCCR5 expressing cells (hCCR5 [2]; hydrochloride) | other results
4 | Cc1ccc(-c2ccc3c(c2)C=C(C(=O)Nc2ccc(C[N+](C)(C)C4CCOCC4)cc2)CCC3)cc1.[Cl-] [TAK-779] | 10.4 | – | – | only weakly; also recorded: weak inhibition | only weakly and weak | complete inhibition | 55 nM | – | –
